Experimental data published in ChEMBL document CHEMBL1201862, “PubChem BioAssay data set” (2004).
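Values below derive from 48-hour exposures of cells grown in 96-well plates, with endpoints linearly interpolated between the two concentrations bracketing the appropriate inhibition level. At the GI50, growth is halved.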 Calls of active or inactive are those of the source. Cut-off read from the data, not from the text of the source: active = GI50 up to about 1.1 µM and inactive = higher.

Legend:
Assay in all cases: DTP human tumour cell line panel, 48 h
[1] = system: CCRF-CEM
[2] = system: KM12
[3] = system: SK-MEL-5
[4] = system: SK-MEL-2
[5] = system: HOP-92
[6] = system: SR
[7] = system: OVCAR-8
[8] = system: RPMI-8226
[9] = system: NCI-H23
[10] = system: OVCAR-4
[11] = system: T47D
[12] = system: SF-295
[13] = system: OVCAR-5
[14] = system: LOX IMVI
[15] = system: ACHN
[16] = system: NCI-H460
[17] = system: NCI/ADR-RES
[18] = system: HT-29
[19] = system: RXF 393
[20] = system: SNB-75

| SMILES | GI50 [1] | GI50 [2] | GI50 [3] | GI50 [4] | GI50 [5] | GI50 [6] | GI50 [7] | GI50 [8] | GI50 [9] | GI50 [10] | GI50 [11] | GI50 [12] | GI50 [13] | GI50 [14] | GI50 [15] | GI50 [16] | GI50 [17] | GI50 [18] | GI50 [19] | GI50 [20] |
| --- | --- | --- | --- | --- | --- | --- | --- | --- | --- | --- | --- | --- | --- | --- | --- | --- | --- | --- | --- | --- |
| Nc1nncs1 | 1010 µM (inactive) | 1940 µM (inactive) | 2360 µM (inactive) | > 5000 µM (inactive) | 2260 µM (inactive) | 2000 µM (inactive) | 1910 µM (inactive) | 991 µM (inactive) | 1640 µM (inactive) | 853 µM (inactive) | > 3040 µM (inactive) | 2760 µM (inactive) | 1870 µM (inactive) | 1450 µM (inactive) | 1520 µM (inactive) | 692 µM (inactive) | 1510 µM (inactive) | 211 µM (inactive) | 2930 µM (inactive) | 1440 µM (inactive) |
| O=C(O)c1cc2ccccc2c(/N=N/c2ccc(S(=O)(=O)O)cc2)c1O | > 100 µM (inactive) | > 100 µM (inactive) | > 100 µM (inactive) | > 100 µM (inactive) | > 100 µM (inactive) | > 100 µM (inactive) | > 100 µM (inactive) | > 100 µM (inactive) |  | > 100 µM (inactive) | > 100 µM (inactive) | > 100 µM (inactive) | > 100 µM (inactive) |  | > 100 µM (inactive) | > 100 µM (inactive) | > 100 µM (inactive) | > 100 µM (inactive) | > 100 µM (inactive) | > 100 µM (inactive) |
| CCOC(=O)CCN1C(=O)c2c(NC(=O)C(=O)O)cccc2S1(=O)=O | > 100 µM (inactive) | > 100 µM (inactive) | > 10 µM (inactive) | > 100 µM (inactive) | > 100 µM (inactive) | > 100 µM (inactive) | > 100 µM (inactive) | > 100 µM (inactive) | > 100 µM (inactive) | > 100 µM (inactive) | > 100 µM (inactive) | > 100 µM (inactive) | > 100 µM (inactive) | > 100 µM (inactive) | > 100 µM (inactive) | > 100 µM (inactive) | > 100 µM (inactive) | > 100 µM (inactive) | > 100 µM (inactive) |  |
| Cc1cc(C)c2c(=O)n(CN3CCC(O)(c4ccccc4)CC3)sc2n1 | 19.4 µM (inactive) | > 100 µM (inactive) | 97.3 µM (inactive) | > 100 µM (inactive) | > 100 µM (inactive) | 29.9 µM (inactive) | 30.1 µM (inactive) | 23.4 µM (inactive) | 27.8 µM (inactive) | 29.4 µM (inactive) | 80.9 µM (inactive) | > 100 µM (inactive) | 23 µM (inactive) | 31.1 µM (inactive) | 19.4 µM (inactive) | 29 µM (inactive) | 53.1 µM (inactive) | 28.4 µM (inactive) | 19.8 µM (inactive) | 19.2 µM (inactive) |
| O=[N+]([O-])/C(C(Cl)=C(Cl)Cl)=C(/Br)SCc1ccccc1 | 0.277 µM (active) | 13.4 µM (inactive) | 2.96 µM (inactive) | 4.42 µM (inactive) | 1.77 µM (inactive) | 0.375 µM (active) | 2.61 µM (inactive) | 0.656 µM (active) | 3.22 µM (inactive) | 3.3 µM (inactive) | 2.88 µM (inactive) | 15.9 µM (inactive) | 5.71 µM (inactive) | 1.56 µM (inactive) | 2.64 µM (inactive) | 7.13 µM (inactive) | 3.29 µM (inactive) | 2.11 µM (inactive) | 1.79 µM (inactive) | 2.56 µM (inactive) |
| CCCCCCCCCCCCCCCCNC(=O)/C(=C\c1ccc(Cl)c(Cl)c1)NC(=O)c1ccccc1 |  | 52.6 µM (inactive) | > 100 µM (inactive) | > 100 µM (inactive) | 14.2 µM (inactive) | 18.2 µM (inactive) | 59.6 µM (inactive) | 24.4 µM (inactive) | 22.8 µM (inactive) | 24.8 µM (inactive) | > 100 µM (inactive) | 55.2 µM (inactive) | 47.2 µM (inactive) | 21.9 µM (inactive) | 47.4 µM (inactive) | 36.6 µM (inactive) | 48.3 µM (inactive) | 35.5 µM (inactive) | 15.7 µM (inactive) | 16.7 µM (inactive) |
| CSc1ccc(-c2cc(-c3nc4ccccc4[nH]3)nc(N)c2C#N)cc1 | 13.3 µM (inactive) | 21 µM (inactive) | 13.3 µM (inactive) | 16.9 µM (inactive) | 8.55 µM (inactive) | 13.1 µM (inactive) | 31.6 µM (inactive) | 21.4 µM (inactive) | 24.9 µM (inactive) |  | 13.5 µM (inactive) | 21.9 µM (inactive) | 26.6 µM (inactive) | 18.2 µM (inactive) | 19.9 µM (inactive) | 22 µM (inactive) | 31.3 µM (inactive) | 21.9 µM (inactive) | 2.58 µM (inactive) | 23.1 µM (inactive) |
| O=[N+]([O-])c1ccc2c(c1)c1nn2CCCCOc2nn(c3ccc([N+](=O)[O-])cc23)CCCCO1 |  |  |  | > 100 µM (inactive) | > 100 µM (inactive) | > 100 µM (inactive) | > 100 µM (inactive) | > 100 µM (inactive) | > 100 µM (inactive) | > 100 µM (inactive) | > 100 µM (inactive) | > 100 µM (inactive) | > 100 µM (inactive) | > 100 µM (inactive) | > 100 µM (inactive) | > 100 µM (inactive) | > 100 µM (inactive) |  | > 100 µM (inactive) | > 100 µM (inactive) |
| Cc1ccc(/N=N/C(=N\c2ccc(F)cc2)c2ccc(N(CCC#N)CCC#N)cc2)cc1 | 97.5 µM (inactive) | 33.3 µM (inactive) | 44.1 µM (inactive) | 62.7 µM (inactive) | > 100 µM (inactive) | 74.3 µM (inactive) | 77.4 µM (inactive) | 74.6 µM (inactive) | > 100 µM (inactive) | 60.3 µM (inactive) | 47.1 µM (inactive) | > 100 µM (inactive) | > 100 µM (inactive) |  | > 100 µM (inactive) | 33.5 µM (inactive) | > 100 µM (inactive) | > 100 µM (inactive) | > 100 µM (inactive) | > 100 µM (inactive) |
| CCOC(=O)N1C(=S)C(C(=O)OC)(C(=O)OC)N=C1C | > 100 µM (inactive) | > 100 µM (inactive) | > 100 µM (inactive) | > 100 µM (inactive) | > 100 µM (inactive) | > 100 µM (inactive) | > 100 µM (inactive) | > 100 µM (inactive) | > 100 µM (inactive) | > 100 µM (inactive) | > 100 µM (inactive) | > 100 µM (inactive) | > 100 µM (inactive) | > 100 µM (inactive) | > 100 µM (inactive) | > 100 µM (inactive) | > 100 µM (inactive) |  | > 100 µM (inactive) | > 100 µM (inactive) |
| O=C(Nc1cccc(NC(=O)C(=O)C2CCC3=C(Sc4ccccc4N3)C2=O)n1)C(=O)C1CCC2=C(Sc3ccccc3N2)C1=O (stereo not drawn) | 70.1 µM (inactive) | 29.2 µM (inactive) | 41.2 µM (inactive) | > 100 µM (inactive) | > 100 µM (inactive) | 71.4 µM (inactive) | 43.8 µM (inactive) | 40.2 µM (inactive) | 68.9 µM (inactive) | 18.9 µM (inactive) | 50.4 µM (inactive) | 42.6 µM (inactive) | > 100 µM (inactive) | 73.1 µM (inactive) | 76.6 µM (inactive) | 65.9 µM (inactive) | 40.8 µM (inactive) | 67.9 µM (inactive) | > 100 µM (inactive) | 9.68 µM (inactive) |
| CC(C)=CC1C(C(=O)OCc2cc3c(cc2Cl)OCO3)C1(C)C (stereo not drawn) | 32.6 µM (inactive) | 27.7 µM (inactive) | 16.7 µM (inactive) | 6.4 µM (inactive) | 31.7 µM (inactive) | 15.7 µM (inactive) | 44.3 µM (inactive) |  | 25.8 µM (inactive) | 49.8 µM (inactive) | 17.3 µM (inactive) | 26.3 µM (inactive) | 39.2 µM (inactive) | 16.6 µM (inactive) | 28.7 µM (inactive) | 24.4 µM (inactive) | 42.8 µM (inactive) | 23.1 µM (inactive) | 44.1 µM (inactive) | 26.9 µM (inactive) |
| C/C(Nc1ccc(Cl)cc1)=C1/CCOC1=O | 1.55 µM (inactive) | 0.618 µM (active) | 1.13 µM (inactive) | 12.7 µM (inactive) | > 100 µM (inactive) | 21.5 µM (inactive) | 7.89 µM (inactive) | 1.27 µM (inactive) | > 100 µM (inactive) | > 100 µM (inactive) | 4.91 µM (inactive) | 6.7 µM (inactive) | > 20.5 µM (inactive) | 0.277 µM (active) | 13.7 µM (inactive) | > 31.4 µM (inactive) | > 75.9 µM (inactive) | 30.1 µM (inactive) | > 32.1 µM (inactive) | > 67.8 µM (inactive) |
| C[C@]12CC[C@H]3[C@@H](CC=C4C[C@@H](O)CC[C@@]43C)[C@@H]1C/C(=C\c1ccncc1)[C@@H]2O | 19.5 µM (inactive) | 15.9 µM (inactive) | 8.51 µM (inactive) | 21.1 µM (inactive) | 2 µM (inactive) | 8.87 µM (inactive) | 15 µM (inactive) | 9.91 µM (inactive) | 13.7 µM (inactive) | 12.2 µM (inactive) | 12.1 µM (inactive) | 16.6 µM (inactive) | 32.7 µM (inactive) | 22 µM (inactive) | 16.9 µM (inactive) | 15.1 µM (inactive) | 17.3 µM (inactive) | 20.9 µM (inactive) | 18.1 µM (inactive) | 27.1 µM (inactive) |
